{"source": "patent US4092426A", "about": "“Novel aminobenzoic acid derivatives, process for preparing the same and pharmaceutical composition containing the same” (Chugai Seiyaku Kabushiki Kaisha, priority 1975, dated 1978)", "key": {"[1]": {"system": "plaque forming cells (PFC) in the spleen", "experiment": "Activity for Recovering Immune Depletion by cortisone: plaque forming cells (PFC) in the spleen", "type": "in vivo, IV CS strain male mice", "conditions": "10 mg/kg oral, cortisone-treated", "experimental": "As test animals, IV CS strain male mice (5 week old) were used by dividing them into groups of 5 members each. Each mouse was intraperitoneally administered with cortisone in a dose of 60 mg/kg once a day for 5 days. Three days after the first administration, the sensitization with an antigen, sheep red blood cell (SRBC), was made by injecting the antigen into the mouse through the tail vein. Each mouse was orally administered with the test compound, disodium salt of N-2'-carboxyphenyl-4-chloroanthranilic acid, a day after the sensitization. Five days after the sensitization, the number of plaque forming cells (PFC) in the spleen was measured in a usual manner."}, "Adjuvant arthritis": {"system": "Adjuvant arthritis", "experiment": "Activity for Treating Adjuvant Arthritis (hind paw volume)", "type": "in vivo, Sprague Dawley strain male rats", "experimental": "Sprague Dawley strain male rats (eight week old) were used as test animals. […] Seventeen days after the sensitization, degree of swelling of hind pawls of each rat was determined by measuring the volume of its hind paws and the rats were divided into groups of 10 members each so that average degree of swelling for each of the groups was approximately equal. Each group of rats was orally administered with the test compound, disodium salt of N-2'-carboxyphenyl-4-chloroanthranilic acid, in a dose as shown in Table 5 once a day for a week starting on the seventeenth day after the sensitization. Degree of swelling of hind paws of each rat was measured every second or third day after the completion of the administration of the test compound till the 31st day from the sensitization. The reduction in volume of the hind paws was used as an index to evaluate the pharmacological activity.\nThe results of the statistical test which was made on the values obtained on the 24th and 31st days from the sensitization are shown in Table 5."}, "[2]": {"system": "Pseudomonas aeruginosa Pa-II", "experiment": "Activity for Protecting from Infection by Bucillus Pyocyaneous", "type": "in vivo", "conditions": "oral 2 mg/head; for Survival Terms: individual animals", "text": "As test animals, ddY strain male mice (5 week old) which were divided into groups of 7 members each were used. Each mouse was intraperitoneally inoculated with bucillus pyocyaneous, Pseudomonas aeruginosa Pa-II."}, "Sarcoma-180": {"system": "Sarcoma-180", "experiment": "Antitumor Activity on Transplanted Tumor Cells (Sarcoma-180)", "type": "in vivo, ddY strain male mice", "conditions": "10 mg/kg oral once a day for 11 days; tumor weight 14 days after transplantation", "text": "For test animals, ddY strain male mice weighing 20 - 25 g were used dividing into groups of 9 or 10 members each. Each of the mice was subjected to transplantation of 10^6 tumor cells (Sarcoma-180) at a portion of the root of a hind paw by subcutaneous injection to induce solid tumor. The test compound, disodium salt of N-2'-carboxyphenyl-4-chloroanthranilic acid, was orally administered once a day for 11 days from the day that transplantation was made. Fourteen days after the transplantation, the grown tumor tissue was taken out from each mouse and its wet weight was measured to evaluate antitumor activity of the test compound. […] For the reasons stated above, it is assumed that the activity of the test compound is based on host-mediated antitumor activity."}, "[3]": {"system": "autoimmune glomerulonephritis", "experiment": "Activity for Treating a Model of Autoimmune Disease (glomerulonephritis)", "type": "in vivo, New Zealand Black/White F1 female mice", "experimental": "Pharmacological activity of the test compound, disodium salt of N-2'-carboxyphenyl-4-chloroanthranilic acid, was studied by the use of glomerulonephritis of New Zealand Black/White F1 female mice as a model of autoimmune disease. The test animals were divided into groups of 8 members each and orally administered with the test compound in a dose of 5 mg/kg or 50 mg/kg once a day from 8 week old. Development of the disease was evaluated by measuring the level of protein in urine with Combistix test paper (Ames Co., Inc.). It was confirmed that the evaluation by the test paper closely corresponds to the results of a quantitative analysis by a sulfosalicyclic acid method. Changes in average level of protein in urine each of the groups during a period of from 20 weeks old to 35 weeks old of the mice are shown in FIG. 2. […] Further, 3 mice among 8 mice of the control group were died from glomerulonephritis during the period of from 35 to 40 weeks from their birth, while there was no death in the groups to which the test compound had been administered."}}, "note": "Counter-ions that a name gives are not always drawn."}
{"smiles": "O=C(O)c1ccccc1Nc1cc(Cl)ccc1C(=O)O", "note": "[disodium salt of N-2'-carboxyphenyl-4-chloroanthranilic acid]", "values": [{"measurement": "number of PFC", "setting": "[1]", "value": "significantly increased"}, {"measurement": "volume of hind paws", "setting": "Adjuvant arthritis; 0.1 mg/kg oral, day 24 after the sensitization", "value": "3.524 ± 0.170", "unit": "mL"}, {"measurement": "volume of hind paws", "setting": "Adjuvant arthritis; 0.1 mg/kg oral, day 31 after the sensitization", "value": "3.762 ± 0.216", "unit": "mL"}, {"measurement": "volume of hind paws", "setting": "Adjuvant arthritis; 1 mg/kg oral, day 24 after the sensitization", "value": "3.214 ± 0.161", "unit": "mL"}, {"measurement": "volume of hind paws", "setting": "Adjuvant arthritis; 1 mg/kg oral, day 31 after the sensitization", "value": "3.289 ± 0.223", "unit": "mL"}, {"measurement": "volume of hind paws", "setting": "Adjuvant arthritis; 5 mg/kg oral, day 24 after the sensitization, ** P<0.01", "value": "3.175 ± 0.100", "unit": "mL"}, {"measurement": "volume of hind paws", "setting": "Adjuvant arthritis; 5 mg/kg oral, day 31 after the sensitization, * P<0.05", "value": "3.102 ± 0.141", "unit": "mL"}, {"measurement": "volume of hind paws", "setting": "Adjuvant arthritis; 10 mg/kg oral, day 24 after the sensitization, ** P<0.01", "value": "3.027 ± 0.126", "unit": "mL"}, {"measurement": "volume of hind paws", "setting": "Adjuvant arthritis; 10 mg/kg oral, day 31 after the sensitization, * P<0.05", "value": "3.121 ± 0.176", "unit": "mL"}, {"measurement": "volume of hind paws", "setting": "Adjuvant arthritis; 100 mg/kg oral, day 24 after the sensitization", "value": "3.350 ± 0.168", "unit": "mL"}, {"measurement": "volume of hind paws", "setting": "Adjuvant arthritis; 100 mg/kg oral, day 31 after the sensitization", "value": "3.482 ± 0.170", "unit": "mL"}, {"measurement": "activity for treating adjuvant arthritis of rat", "setting": "Adjuvant arthritis; 5 or 10 mg/kg oral", "value": "significant level of activity"}, {"measurement": "Survival Terms", "setting": "[2]; 2 × 10^4 bacteria/head, mouse, S: survival at 54 hours", "value": "S,S,S,S,S and S,S"}, {"measurement": "Dead Animal/Test Animal", "setting": "[2]; 2 × 10^4 bacteria/head, control 1/7", "value": "0/7"}, {"measurement": "activity for protecting from the bacterial infection", "setting": "[2]; 2 × 10^5 bacteria per head", "value": "activity of the test compound for protecting from the bacterial infection was observed"}, {"measurement": "Survival Terms", "setting": "[2]; 2 × 10^5 bacteria/head, mouse, S: survival at 54 hours", "value": "S,S"}, {"measurement": "Dead Animal/Test Animal", "setting": "[2]; 2 × 10^5 bacteria/head, control 6/7", "value": "1/7"}, {"measurement": "Survival Terms", "setting": "[2]; 2 × 10^6 bacteria/head, mouse", "value": "29,29 hours"}, {"measurement": "Dead Animal/Test Animal", "setting": "[2]; 2 × 10^6 bacteria/head, control 7/7", "value": "7/7"}, {"measurement": "effect on bacillary toxin", "setting": "[2]; mouse", "value": "acts to lower the bacillary toxin"}, {"measurement": "suppression of tumor growth (Sarcoma-180)", "setting": "Sarcoma-180", "value": "significant activity for suppression of tumor growth"}, {"measurement": "suppression of autoimmune glomerulonephritis", "setting": "[3]; 5 or 50 mg/kg oral once a day", "value": "significantly shows pharmacological activities to suppress autoimmune glomerulonephritis"}, {"measurement": "level of protein in urine", "setting": "[3]; 5 or 50 mg/kg oral once a day, 20 to 35 weeks old, control rose after around 27 weeks", "value": "maintained a relatively steady level"}, {"measurement": "death from glomerulonephritis", "setting": "[3]; 5 or 50 mg/kg oral, 35 to 40 weeks from birth, control 3 among 8 died", "value": "no death"}]}
